pEC50: −log10 of the molar value. Starred links: 1 amine or outer side, 2 acyl side, 3 side chain; linkers in the order of their positions; H or OH if unused. Residues, ends and D or L forms follow the SMILES beside them. Groups on a side chain read outwards from the residue. *: point of attachment. C18 diacid = O=C(O)CCCCCCCCCCCCCCCCC(=O)*; γGlu = O=C(O)[C@H](CCC(=O)[*:2])N[*:1]; Stearoyl = CCCCCCCCCCCCCCCCCC(=O)*; Palmitoyl = CCCCCCCCCCCCCCCC(=O)*; AEEA = NCCOCCOCC(=O)O
These compounds were tested against T1, human GLP-1 receptor (Homo sapiens, UniProt P43220) (assay: Functional receptor assay: cAMP formation in plasma membranes of BHK cells expressing the cloned human GLP-1 receptor (GLP1cAMPma)). Details: not given.
T1 construct: expressed in transfected cells; host or cells: BHK cells, clone BHK-467-12A; plasma membrane preparation
Type: biochemical
Procedure: The term “insulinotropic agent” as used herein means a compound which is an agonist of the human GLP-1 receptor, i.e. a compound which stimulates the formation of cAMP in a suitable medium containing the human GLP-1 receptor (one such medium disclosed below). The potency of an insulinotropic agent is determined by calculating the EC50 value from the dose-response curve as described below.
The cells were washed twice in phosphate buffered saline and harvested with Versene. Plasma membranes were prepared from the cells by homogenisation with an Ultraturrax in buffer 1 (20 mM HEPES-Na, 10 mM EDTA, pH 7.4). The homogenate was centrifuged at 48,000×g for 15 min at 4° C. The pellet was suspended by homogenization in buffer 2 (20 mM HEPES-Na, 0.1 mM EDTA, pH 7.4), then centrifuged at 48,000×g for 15 min at 4° C. The washing procedure was repeated one more time. The final pellet was suspended in buffer 2 and used immediately for assays or stored at −80° C.
The functional receptor assay was carried out by measuring cyclic AMP (cAMP) as a response to stimulation by the insulinotropic agent. cAMP formed was quantified by the AlphaScreen™ cAMP Kit (Perkin Elmer Life Sciences). Incubations were carried out in half-area 96-well microtiter plates in a total volume of 50 μL buffer 3 (50 mM Tris-HCl, 5 mM HEPES, 10 mM MgCl2, pH 7.4) and with the following additions: 1 mM ATP, 1 μM GTP, 0.5 mM 3-isobutyl-1-methylxanthine (IBMX), 0.01% Tween-20, 0.1% BSA, 6 μg membrane preparation, 15 μg/mL acceptor beads, 20 μg/mL donor beads preincubated with 6 nM biotinyl-cAMP. […] GTP was freshly prepared for each experiment. The plate was incubated in the dark with slow agitation for three hours at room temperature followed by counting in the Fusion™ instrument (Perkin Elmer Life Sciences). Concentration-response curves were plotted for the individual compounds and EC50 values estimated using a four-parameter logistic model with Prism v. 4.0 (GraphPad, Carlsbad, Calif.).

T1 sequence (P43220 24-463): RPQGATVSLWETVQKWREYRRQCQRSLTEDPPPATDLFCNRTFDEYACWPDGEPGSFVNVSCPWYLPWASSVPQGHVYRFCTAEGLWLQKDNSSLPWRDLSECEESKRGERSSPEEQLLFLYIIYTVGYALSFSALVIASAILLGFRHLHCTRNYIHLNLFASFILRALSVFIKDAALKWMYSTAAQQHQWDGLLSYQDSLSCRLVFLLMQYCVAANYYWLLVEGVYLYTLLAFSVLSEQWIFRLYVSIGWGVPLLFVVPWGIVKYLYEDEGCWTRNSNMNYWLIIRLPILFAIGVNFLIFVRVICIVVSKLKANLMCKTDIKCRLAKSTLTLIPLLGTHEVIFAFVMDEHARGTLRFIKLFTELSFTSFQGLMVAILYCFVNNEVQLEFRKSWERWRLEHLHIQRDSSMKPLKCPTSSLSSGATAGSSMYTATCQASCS

SMILES	pEC50
CCCCCCCCCCCCCCCCCC(=O)NCCOCCOCC(=O)NCCOCCOCC(=O)NCCOCCOCC(=O)NCCCC[C@H](NC(=O)[C@@H]1CCCN1C(=O)CNC(=O)CNC(=O)[C@H](CCCNC(=N)N)NC(=O)[C@@H](NC(=O)[C@H](CC(C)C)NC(=O)[C@H](Cc1c[nH]c2ccccc12)NC(=O)[C@H](CCC(=O)O)NC(=O)[C@@H](NC(=O)[C@H](Cc1ccccc1)NC(=O)[C@H](CC(C)C)NC(=O)[C@H](CCCNC(=N)N)NC(=O)[C@@H](NC(=O)[C@H](C)NC(=O)[C@H](CCC(=O)O)NC(=O)[C@H](CCC(=O)O)NC(=O)[C@H](CCC(=O)O)NC(=O)[C@H](CC(C)C)NC(=O)[C@H](CCC(N)=O)NC(=O)[C@H](CCCNC(=N)N)NC(=O)[C@H](CO)NC(=O)[C@H](CC(C)C)NC(=O)[C@H](CC(=O)O)NC(=O)[C@H](CO)NC(=O)[C@@H](NC(=O)[C@H](Cc1ccccc1)NC(=O)[C@@H](NC(=O)CNC(=O)[C@H](CCC(=O)O)NC(=O)CNC(=O)[C@@H](N)Cc1c[nH]cn1)[C@@H](C)O)[C@@H](C)O)C(C)C)[C@@H](C)CC)C(C)C)C(=O)N[C@@H](CO)C(=O)NCC(=O)N[C@@H](C)C(=O)N1CCC[C@H]1C(=O)N1CCC[C@H]1C(=O)N1CCC[C@H]1C(=O)N[C@@H](CO)C(N)=O [Example 2] (H-HGEGTFTSDLSRQLEEEAVRLFIEWLVRGGPK([AEEA-AEEA-AEEA-Stearoyl])SGAPPPS-NH2)	10.57
CCCCCCCCCCCCCCCC(=O)N[C@@H](CCC(=O)NCCOCCOCC(=O)NCCOCCOCC(=O)NCCCC[C@H](NC(=O)[C@@H](NC(=O)[C@H](C)NC(=O)[C@H](CCC(=O)O)NC(=O)[C@H](CCC(=O)O)NC(=O)[C@H](CCC(=O)O)NC(=O)[C@H](CC(C)C)NC(=O)[C@H](CCC(N)=O)NC(=O)[C@H](CCC(N)=O)NC(=O)[C@H](CO)NC(=O)[C@H](CC(C)C)NC(=O)[C@H](CC(=O)O)NC(=O)[C@H](CO)NC(=O)[C@@H](NC(=O)[C@H](Cc1ccccc1)NC(=O)[C@@H](NC(=O)CNC(=O)[C@H](CCC(=O)O)NC(=O)CNC(=O)[C@@H](N)Cc1c[nH]cn1)[C@@H](C)O)[C@@H](C)O)C(C)C)C(=O)N[C@@H](CC(C)C)C(=O)N[C@@H](Cc1ccccc1)C(=O)N[C@H](C(=O)N[C@@H](CCC(=O)O)C(=O)N[C@@H](Cc1c[nH]c2ccccc12)C(=O)N[C@@H](CC(C)C)C(=O)N[C@@H](CCCCN)C(=O)N[C@@H](CCC(N)=O)C(=O)NCC(=O)NCC(=O)N1CCC[C@H]1C(=O)N[C@@H](CO)C(=O)N[C@@H](CO)C(=O)NCC(=O)N[C@@H](C)C(=O)N1CCC[C@H]1C(=O)N1CCC[C@H]1C(=O)N1CCC[C@H]1C(=O)N[C@@H](CO)C(N)=O)[C@@H](C)CC)C(=O)O [Example 48] (H-HGEGTFTSDLSQQLEEEAVK([AEEA-AEEA-γGlu-Palmitoyl])LFIEWLKQGGPSSGAPPPS-NH2; N-terminus assumed)	10.68

Same assay, conditions: cAMP, membranes with human GLP-1 receptor, mean value; read-out: GLP1cAMPma (3693) [EC50 (nM)] Mean Value

SMILES	EC50 [nM]
CC[C@H](C)[C@H](NC(=O)[C@H](Cc1ccccc1)NC(=O)[C@H](CC(C)C)NC(=O)[C@H](CCCNC(=N)N)NC(=O)[C@@H](NC(=O)[C@H](C)NC(=O)[C@H](CCC(=O)O)NC(=O)[C@H](CCC(=O)O)NC(=O)[C@H](CCC(=O)O)NC(=O)[C@H](CCCCNC(=O)COCCOCCNC(=O)COCCOCCNC(=O)CCCCCCCCCCCCCCCCC(=O)O)NC(=O)[C@H](CCC(N)=O)NC(=O)[C@H](CCCNC(=N)N)NC(=O)[C@H](CO)NC(=O)[C@H](CC(C)C)NC(=O)[C@H](CC(=O)O)NC(=O)[C@H](CO)NC(=O)[C@@H](NC(=O)[C@H](Cc1ccccc1)NC(=O)[C@@H](NC(=O)CNC(=O)[C@H](CCC(=O)O)NC(=O)CNC(=O)[C@@H](N)Cc1c[nH]cn1)[C@@H](C)O)[C@@H](C)O)C(C)C)C(=O)N[C@@H](CCC(=O)O)C(=O)N[C@@H](Cc1c[nH]c2ccccc12)C(=O)N[C@@H](CC(C)C)C(=O)N[C@H](C(=O)N[C@@H](CCCNC(=N)N)C(=O)NCC(=O)NCC(=O)N1CCC[C@H]1C(=O)N[C@@H](CO)C(=O)N[C@@H](CO)C(=O)NCC(=O)N[C@@H](C)C(=O)N1CCC[C@H]1C(=O)N1CCC[C@H]1C(=O)N1CCC[C@H]1C(=O)N[C@@H](CO)C(N)=O)C(C)C [Example 27] (H-HGEGTFTSDLSRQK([AEEA-AEEA-C18 diacid])EEEAVRLFIEWLVRGGPSSGAPPPS-NH2; N-terminus assumed)	3.65
CCCCCCCCCCCCCCCC(=O)N[C@@H](CCC(=O)NCCOCCOCC(=O)NCCOCCOCC(=O)NCCCC[C@H](NC(=O)[C@@H](NC(=O)[C@H](C)NC(=O)[C@H](CCC(=O)O)NC(=O)[C@H](CCC(=O)O)NC(=O)[C@H](CCC(=O)O)NC(=O)[C@H](CC(C)C)NC(=O)[C@H](CCC(N)=O)NC(=O)[C@H](CCCNC(=N)N)NC(=O)[C@H](CO)NC(=O)[C@H](CC(C)C)NC(=O)[C@H](CC(=O)O)NC(=O)[C@H](CO)NC(=O)[C@@H](NC(=O)[C@H](Cc1ccccc1)NC(=O)[C@@H](NC(=O)CNC(=O)[C@H](CCC(=O)O)NC(=O)CNC(=O)[C@@H](N)Cc1c[nH]cn1)[C@@H](C)O)[C@@H](C)O)C(C)C)C(=O)N[C@@H](CC(C)C)C(=O)N[C@@H](Cc1ccccc1)C(=O)N[C@H](C(=O)N[C@@H](CCC(=O)O)C(=O)N[C@@H](Cc1c[nH]c2ccccc12)C(=O)N[C@@H](CC(C)C)C(=O)N[C@@H](CCCNC(=N)N)C(=O)N[C@@H](CCC(N)=O)C(=O)NCC(=O)NCC(=O)N1CCC[C@H]1C(=O)N[C@@H](CO)C(=O)N[C@@H](CO)C(=O)NCC(=O)N[C@@H](C)C(=O)N1CCC[C@H]1C(=O)N1CCC[C@H]1C(=O)N1CCC[C@H]1C(=O)N[C@@H](CO)C(N)=O)[C@@H](C)CC)C(=O)O [Example 18, N-ε^20-2-(2-(2-(2-(2-(2-(4-(Hexadecanoylamino)-4(S)-carboxybutyrylamino)ethoxy)ethoxy)acetylamino)ethoxy)ethoxy)acetyl[Arg^12,27,Leu^14,Lys^20,Gln^28]Exendin-4-(1-39)-peptide amide] (H-HGEGTFTSDLSRQLEEEAVK([AEEA-AEEA-γGlu-Palmitoyl])LFIEWLRQGGPSSGAPPPS-NH2; N-terminus assumed)	0.033
CCCCCCCCCCCCCCCC(=O)N[C@@H](CCC(=O)NCCOCCOCC(=O)NCCOCCOCC(=O)NCCCC[C@H](NC(=O)[C@H](CO)NC(=O)[C@H](CO)NC(=O)[C@@H]1CCCN1C(=O)CNC(=O)CNC(=O)[C@H](CC(N)=O)NC(=O)[C@H](CCCNC(=N)N)NC(=O)[C@H](CC(C)C)NC(=O)[C@H](Cc1c[nH]c2ccccc12)NC(=O)[C@H](CCC(=O)O)NC(=O)[C@@H](NC(=O)[C@H](Cc1ccccc1)NC(=O)[C@H](CC(C)C)NC(=O)[C@H](CCCNC(=N)N)NC(=O)[C@@H](NC(=O)[C@H](C)NC(=O)[C@H](CCC(=O)O)NC(=O)[C@H](CCC(=O)O)NC(=O)[C@H](CCC(=O)O)NC(=O)[C@H](CC(C)C)NC(=O)[C@H](CCC(N)=O)NC(=O)[C@H](CCCNC(=N)N)NC(=O)[C@H](CO)NC(=O)[C@H](CC(C)C)NC(=O)[C@H](CC(=O)O)NC(=O)[C@H](CO)NC(=O)[C@@H](NC(=O)[C@H](Cc1ccccc1)NC(=O)[C@@H](NC(=O)CNC(=O)[C@H](CCC(=O)O)NC(=O)CNC(=O)[C@@H](N)Cc1c[nH]cn1)[C@@H](C)O)[C@@H](C)O)C(C)C)[C@@H](C)CC)C(=O)N[C@@H](C)C(=O)N1CCC[C@H]1C(=O)N1CCC[C@H]1C(=O)N1CCC[C@H]1C(=O)N[C@@H](CO)C(N)=O)C(=O)O [Example 6, N-ε^34-[2-(2-[2-(2-[2-(2-[4-hexadecanoylamino-4(S)-carboxybutyrylamino]ethoxy)ethoxy]acetylamino)ethoxy]ethoxy)acetyl] [Arg^12,27,Leu^14,Lys^34]Exendin-4(1-39)amide] (H-HGEGTFTSDLSRQLEEEAVRLFIEWLRNGGPSSK([AEEA-AEEA-γGlu-Palmitoyl])APPPS-NH2; N-terminus assumed)	0.018
CCCCCCCCCCCCCCCCCC(=O)N[C@@H](CCC(=O)NCCOCCOCC(=O)NCCOCCOCC(=O)NCCCC[C@H](NC(=O)[C@@H](NC(=O)[C@H](C)NC(=O)[C@H](CCC(=O)O)NC(=O)[C@H](CCC(=O)O)NC(=O)[C@H](CCC(=O)O)NC(=O)[C@H](CC(C)C)NC(=O)[C@H](CCC(N)=O)NC(=O)[C@H](CCCNC(=N)N)NC(=O)[C@H](CO)NC(=O)[C@H](CC(C)C)NC(=O)[C@H](CC(=O)O)NC(=O)[C@H](CO)NC(=O)[C@@H](NC(=O)[C@H](Cc1ccccc1)NC(=O)[C@@H](NC(=O)CNC(=O)[C@H](CCC(=O)O)NC(=O)CNC(=O)[C@@H](N)Cc1c[nH]cn1)[C@@H](C)O)[C@@H](C)O)C(C)C)C(=O)N[C@@H](CC(C)C)C(=O)N[C@@H](Cc1ccccc1)C(=O)N[C@H](C(=O)N[C@@H](CCC(=O)O)C(=O)N[C@@H](Cc1c[nH]c2ccccc12)C(=O)N[C@@H](CC(C)C)C(=O)N[C@@H](CCCNC(=N)N)C(=O)N[C@@H](CCC(N)=O)C(=O)NCC(=O)NCC(=O)N1CCC[C@H]1C(=O)N[C@@H](CO)C(=O)N[C@@H](CO)C(=O)NCC(=O)N[C@@H](C)C(=O)N1CCC[C@H]1C(=O)N1CCC[C@H]1C(=O)N1CCC[C@H]1C(=O)N[C@@H](CO)C(N)=O)[C@@H](C)CC)C(=O)O [Example 15] (H-HGEGTFTSDLSRQLEEEAVK([AEEA-AEEA-γGlu-Stearoyl])LFIEWLRQGGPSSGAPPPS-NH2)	0.044

— US9012398B2, “Acylated exendin-4 compounds” (priority 2006, dated 2015)
